Test results from patent US7115636B2, “Hetrocyclic aryl sulphonamides” (Bayer Healthcare AG, priority 2001, dated 2006).

Assays:
Type in all cases: cell-based
[1] = system: MCMV (murine cytomegalovirus); assay: Anti-MCMV cytopathogenicity test; conditions: Murid betaherpesvirus 1, 120 h; MCMV on 3T3 mouse cells, M.O.I. 0.05–0.1, 5 days
Procedure: Anti-HCMV (anti-human cytomegalovirus) and anti-MCMV (anti-murine cytomegalovirus) cytopathogenicity tests:
(§1) The test compounds were employed as 50 millimolar (mM) solutions in dimethyl sulfoxide (DMSO). Ganciclovir, foscarnet and cidofovir served as reference compounds. After the addition of 2 μl in each case of the 50, 5, 0.5 and 0.05 mM DMSO stock solutions to 98 μl each of cell culture medium in row 2 A-H in duplicate, 1:2 dilutions using 50 μl each of medium up to row 11 of the 96-well plate were carried out. The wells in rows 1 and 12 each contained 50 μl of medium. 150 μl each of a suspension of 1×10^4 cells (human lung fibroblasts [HELF]) were then pipetted into the wells (row 1=cell control) or a mixture of HCMV-infected and non-infected HELF cells (M.O.I.=0.001–0.002), i.e. 1–2 infected cells to 1000 non-infected cells, was pipetted into rows 2–12. Row 12 (without substance) served as a virus control. The final test concentrations were 250–0.0005 μM. The plates were incubated at 37° C./5% CO2 for 6 days, i.e. until all cells were infected in the virus controls (100% cytopathogenic effect [CPE]). The wells were then fixed by addition of a mixture of formalin and Giemsa's stain and stained (30 minutes), washed with double-distilled water and dried at 50° C. in a drying oven. The plates were then evaluated visually using an overhead microscope (Plaque multiplier from Technomara). […]

[2] = Cytotoxicity on HELF cells (anti-HCMV cytopathogenicity test plates); conditions: human, human lung fibroblasts (HELF), 6 days incubation
Procedure: as §1, with “2 A-H” left out, “(M.O.I.=0.001-0.002),” for “(M.O.I.=0.001–0.002),”, “1-2” for “1–2”, “2-12.” for “2–12.”, “250-0.0005” for “250–0.0005”

[3] = system: HCMV (human cytomegalovirus); assay: Anti-HCMV cytopathogenicity test; conditions: Human betaherpesvirus 5, 144 h; inhibition of CPE by 50%, HCMV-infected HELF cells, M.O.I. 0.001–0.002, 6 days
Procedure: as §1, with “Anti-HCMV (anti-human cytomegalovirus) and anti-MCMV (anti-murine cytomegalovirus) cytopathogenicity tests: The test” for “The test”, “in row […] in duplicate,” for “in row 2 A-H in duplicate,”, “HELF cells (M.O.I.=0.001-0.002), i.e. 1-2” for “HELF cells (M.O.I.=0.001–0.002), i.e. 1–2”, “(M.O.I.=0.001-0.002), i.e. 1-2 infected cells” for “(M.O.I.=0.001–0.002), i.e. 1–2 infected cells”, “into rows 2-12. Row 12” for “into rows 2–12. Row 12”, “concentrations were 250-0.0005 μM. The” for “concentrations were 250–0.0005 μM. The”

[4] = Cytotoxicity on 3T3 cells (anti-MCMV test); conditions: 3T3 mouse cells, 5 days incubation

Compound | EC50 [1] | CC50 at 6 days [2] | EC50 [3] | CC50 at 5 days [4]
CC1(C(=O)Nc2ccc(NS(=O)(=O)c3cccc(-c4noc([C@@H](N)CCCCN)n4)c3)cc2)CC1 [Example 1] | 0.035 µM | > 250 µM | 0.028 µM | 18 µM
CC(C)[C@H](N)c1nc(-c2ccc(S(=O)(=O)Nc3cccc(NC(=O)C(C)(C)CF)c3)cc2)no1 [Example 3, N-(3-{[(4-{5-[(1S)-1-Amino-2-methylpropyl]-1,2,4-oxadiazol-3-yl}phenyl)sulphonyl]amino}phenyl)-3-fluoro-2,2-dimethylpropanamide] | 0.074 µM | > 250 µM | 0.074 µM | 63 µM
